Source: article PMC6934184, “Selective DNA-PKcs inhibition extends the therapeutic index of localized radiotherapy and chemotherapy” (The Journal of Clinical Investigation, 2019)

Molecular target: T1, RPS6KA3 (RSK2) (Homo sapiens, UniProt P51812)
T1 construct: purchased Thermo Fisher Scientific (Life Technologies) SelectScreen
Test: SelectScreen Z'LYTE
Format: biochemical
Outline: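 Percent values come from Thermo SelectScreen profiling of NU5455, combining activity and binding assays. CSF1R was run in Z'LYTE format at Km app ATP, and CAMK1 in Adapta format with ATP listed at 10.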

T1 sequence (P51812 whole entry): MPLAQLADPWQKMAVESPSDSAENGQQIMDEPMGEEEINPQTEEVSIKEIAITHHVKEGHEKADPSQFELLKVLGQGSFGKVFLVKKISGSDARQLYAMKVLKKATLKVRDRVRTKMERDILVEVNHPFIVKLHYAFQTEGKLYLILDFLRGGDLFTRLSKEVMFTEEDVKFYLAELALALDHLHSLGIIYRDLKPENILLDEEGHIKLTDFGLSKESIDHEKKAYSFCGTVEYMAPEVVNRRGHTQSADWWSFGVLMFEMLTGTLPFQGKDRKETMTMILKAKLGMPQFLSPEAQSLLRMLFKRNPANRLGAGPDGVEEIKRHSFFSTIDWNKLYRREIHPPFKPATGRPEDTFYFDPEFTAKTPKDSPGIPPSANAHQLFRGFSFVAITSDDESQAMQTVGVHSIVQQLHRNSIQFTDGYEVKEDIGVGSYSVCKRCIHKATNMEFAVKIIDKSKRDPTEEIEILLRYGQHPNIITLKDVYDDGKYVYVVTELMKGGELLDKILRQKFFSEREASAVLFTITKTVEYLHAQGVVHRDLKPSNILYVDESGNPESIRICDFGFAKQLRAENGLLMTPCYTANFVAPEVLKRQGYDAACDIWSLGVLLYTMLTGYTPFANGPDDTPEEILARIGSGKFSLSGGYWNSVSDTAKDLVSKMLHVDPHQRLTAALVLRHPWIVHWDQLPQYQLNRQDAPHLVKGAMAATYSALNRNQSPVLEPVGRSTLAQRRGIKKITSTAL

## CN(C(=O)CN1CCOCC1)c1ccc2sc3c(-c4cccc5c(=O)cc(N6CC7CCC(C6)O7)oc45)cccc3c2c1 [NU5455]
  inhibition at 1 µM: 2.1%
